Source: patent publication US11634384B2, “Prodrugs of phenolic TRPV1 agonists” (Concentric Analgesics, Inc., priority 2014, dated 2023)
Read-outs that look alike come from different tables or passages of the source.

Columns and labels:
[1] = Solubility assay in DI water; type: physicochemical; conditions: for solubility at 24 h: thermodynamic from solid, HCl salts, incubated at 50 or 100 mg/mL in DI water, shaking 24 hours, supernatant quantified
Procedure: In order to determine the aqueous solubility of the compounds described herein, the HCl salts of the following compounds were incubated at either 50 or 100 mg/mL in DI water followed by shaking for 24 hours. The solutions were then centrifuged and visually inspected for insoluble material. In all cases, no insoluble material was observed.

physchem = type: physicochemical
Procedure: These compounds are examples of pH activated prodrugs whereby upon exposure to a specific pH, the half-life of the intramolecular cyclization-release reaction is determined. As previously described, the intramolecular cyclization-release reaction results in the concomitant formation of a cyclic urea with the release of the parent drug.
Compounds were incubated in the buffer/biological media indicated (TRIS® obtained from Sigma-Aldrich, St. Louis, Mo., USA, Catalog No. T1503). The reactions were conducted at either room temperature or 37° C.

[2] = comparison value; cited from earlier work
TRPV receptor [3] = biological target: T1, TRPV receptor (Rattus norvegicus, UniProt O35433); experiment: biochemical; type: binding
T1 construct: purchased Eurofins, Panlabs/Cerep 286810
T1 sequence (O35433 whole entry): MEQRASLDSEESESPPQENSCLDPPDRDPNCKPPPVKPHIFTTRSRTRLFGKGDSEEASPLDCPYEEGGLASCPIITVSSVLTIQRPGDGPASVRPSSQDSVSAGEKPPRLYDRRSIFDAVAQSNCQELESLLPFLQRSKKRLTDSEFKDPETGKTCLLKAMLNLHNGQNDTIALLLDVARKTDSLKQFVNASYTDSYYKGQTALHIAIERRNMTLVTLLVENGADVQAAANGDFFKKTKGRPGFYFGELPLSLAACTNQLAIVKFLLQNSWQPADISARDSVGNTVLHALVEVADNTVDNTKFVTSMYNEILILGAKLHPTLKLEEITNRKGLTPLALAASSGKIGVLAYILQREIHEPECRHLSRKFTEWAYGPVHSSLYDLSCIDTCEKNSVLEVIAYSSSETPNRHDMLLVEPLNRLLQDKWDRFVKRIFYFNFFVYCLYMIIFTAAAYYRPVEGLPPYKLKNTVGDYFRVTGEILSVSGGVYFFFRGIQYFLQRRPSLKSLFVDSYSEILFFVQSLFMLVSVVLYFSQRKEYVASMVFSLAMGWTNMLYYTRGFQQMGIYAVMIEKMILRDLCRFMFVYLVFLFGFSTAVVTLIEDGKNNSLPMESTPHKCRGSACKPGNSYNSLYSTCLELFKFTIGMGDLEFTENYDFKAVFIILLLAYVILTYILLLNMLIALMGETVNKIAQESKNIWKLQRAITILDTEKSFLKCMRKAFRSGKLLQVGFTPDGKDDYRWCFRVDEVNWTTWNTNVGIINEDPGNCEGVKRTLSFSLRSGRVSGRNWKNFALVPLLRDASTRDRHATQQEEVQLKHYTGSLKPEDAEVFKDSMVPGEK

TRPV receptor [4] = biological target: T1, TRPV receptor; conditions: historical controls; read-out: historical control value; cited from earlier work
[5] = pH 7.4, pH = ~7.4 (0.3M aqueous tris buffer), 20° C., read-out: Intramolecular Cyclization-Release Half-life (T1/2)
[6] = pH 7.4, pH = ~7.4 (1.0M aqueous tris buffer), 37° C., read-out: Intramolecular Cyclization-Release Half-life (T1/2)

For `CNCC1CCCCN1C(=O)Oc1ccc(CNC(=O)CCCC/C=C/C(C)C)cc1OC` (stereo not drawn) [Compound 7, (E)-2-methoxy-4-((8-methylnon-6-enamido)methyl)phenyl 2-((methylamino)methyl)piperidine-1-carboxylate], the solubility at 24 h [1] was > 50 mg/mL, the “intramolecular cyclization-release half-life, order of magnitude in words” value (physchem) was “minutes” and the “Intramolecular Cyclization-Release Half-life (T1/2)” value (physchem; pH 7.4) was ~3.1 min. The half-life (physchem; pH 7.4, Intramolecular Cyclization-Release Half-life (T1/2)) was ~4.4 min.
For `COc1cc(CNC(=O)CCCC/C=C/C(C)C)ccc1OC(=O)N1CCCC1CN` (stereo not drawn) [Compound 4, (E)-2-methoxy-4-((8-methylnon-6-enamido)methyl)phenyl 2-(aminomethyl)pyrrolidine-1-carboxylate], the half-life (physchem; [5]) was ~17700 min.
In the case of `COc1cc(CNC(=O)CCCC/C=C/C(C)C)ccc1OC(=O)N1CCCCC1CN` (stereo not drawn) [Compound 3, (E)-2-methoxy-4-((8-methylnon-6-enamido)methyl)phenyl 2-(aminomethyl)piperidine-1-carboxylate], the “increase in aqueous solubility from the parent compound, capsaicin” value ([1]; hydrogen chloride salts vs capsaicin) is reported as > 780 fold, the solubility at 24 h [1] is reported as > 100 mg/mL and the half-life (physchem; [5]) is reported as ~31.6 min. The half-life (physchem; [6]) was ~12.9 min.
For `COc1cc(CNC(=O)CCCCC=CC(C)C)ccc1O` [Capsaicin, 8-methyl-N-vanillyl-6-nonenamide], the “aqueous solubility of capsaicin in water” value [2] is listed as ~0.064 mg/mL.
For `COc1cc(CNC(=O)CCCC/C=C/C(C)C)ccc1OC(=O)N(CCN)CCN` [Compound 5, (E)-2-methoxy-4-((8-methylnon-6-enamido)methyl)phenyl bis(2-aminoethyl)carbamate], the solubility at 24 h [1] was > 100 mg/mL, the half-life (physchem; [5]) was ~71.1 min and the half-life (physchem; [6]) was ~24.7 min.
With `COc1cc(CNC(=O)CCCC/C=C/C(C)C)ccc1OC(=O)N(C)CCCN` [Compound 6, (E)-2-methoxy-4-((8-methylnon-6-enamido)methyl)phenyl (3-aminopropyl)(methyl)carbamate] the half-life (physchem; [5]) was ~44400 min.
Molecule `CNCCN(C)C(=O)Oc1ccc(CNC(=O)CCCC/C=C/C(C)C)cc1OC` [Compound 2, (E)-2-methoxy-4-((8-methylnon-6-enamido)methyl)phenyl methyl(2-(methylamino)ethyl)carbamate] has a half-life (physchem; [5]) of ~192 min.
In the case of `COc1cc(CNC(=O)CCCC/C=C/C(C)C)ccc1OC(=O)N(C)CCN` [Compound 1, (E)-2-methoxy-4-((8-methylnon-6-enamido)methyl)phenyl (2-aminoethyl)(methyl)carbamate], the half-life (physchem; [5]) is reported as ~1450 min.
With `COc1cc(CNC(=O)CCCC/C=C/C(C)C)ccc1OC(=O)N1CCNCC1` [Compound 8, (E)-2-methoxy-4-((8-methylnon-6-enamido)methyl)phenyl piperazine-1-carboxylate] the inhibition at 100 µM (TRPV receptor [3]; @ 100 uM) was 23%, the IC50 (TRPV receptor [3]; read-out: IC50) was > 100000 nM and the half-life at 2 weeks (physchem; pH 7.4, pH = ~7.4 (0.3M aqueous tris buffer), 20° C., conversion to capsaicin over 2 weeks, read-out: Intramolecular Cyclization-Release Half-life (T1/2)) was > 14 days.
For `C=C(C)[C@]12C[C@@H](C)[C@@]34O[C@](Cc5ccccc5)(O[C@@H]1[C@@H]3C=C(COC(=O)Cc1ccc(O)c(OC)c1)C[C@]1(O)C(=O)C(C)=C[C@@H]41)O2` [Resiniferatoxin, reference compound], the IC50 (TRPV receptor [4]) is given as 0.46 nM and the IC50 (TRPV receptor [3]) is given as 0.16 nM.
